# Experimental data: patent publication US8980796B2, “Crystal modification of Mesotrione” (Agan Chemical Manufacturers Ltd., priority 2009, dated 2015)
# Entries after “also recorded” stand apart in the source; their conditions may differ. Where two headings read alike, the source gives them in different places.
# Key:
# [1] = per WO 2007/083242, WO 2006/021743, cited from earlier work
# corn varieties = experiment: Selectivity pot trials, overall phytotoxicity on crops; format: in vivo; details: corn varieties tested; 3500 ml/ha (equivalent to 350g a.i./ha)
# Procedure: The selectivity of two Mesotrione 100SC (containing 100 g/l mesotrione) formulations was compared for two crystal modifications (1 and 3).
# The test was performed on three corn varieties. The corn varieties were sown in plastic pots (400 cc) filled with heavy soil. Each treatment was sprayed in 5 replicates. The trial was performed in a glasshouse with controlled temperature (20-30°).
# Post emergence spraying was performed two weeks after sowing. The trials were sprayed with a mechanical sprayer, with a spray volume of 200 L/ha (equivalent to 3500 ml/ha mesotrione 100SC). The plants were irrigated 24 H (hours) after spraying. Selectivity evaluations were conducted during the trial according to the following scale: • 0=Crop completely dead (necrotic). • 100=Plants without any phytotoxic damage.
structure (smiles),measurement,setting,value
"CS(=O)(=O)c1ccc(C(=O)C2C(=O)CCCC2=O)c([N+](=O)[O-])c1 [Mesotrione form 1, 2-[4-(methylsulfonyl)-2-nitrobenzoyl]-1,3-cyclohexanedione]",thermodynamic stability of the polymorphic form,[1]; listed as Form 1,thermodynamically stable
"CS(=O)(=O)c1ccc(C(=O)C2C(=O)CCCC2=O)c([N+](=O)[O-])c1 [Mesotrione form 2, 2-[4-(methylsulfonyl)-2-nitrobenzoyl]-1,3-cyclohexanedione]",thermodynamic stability of the polymorphic form,[1]; listed as Form 2,thermodynamically unstable
"CS(=O)(=O)c1ccc(C(=O)C2C(=O)CCCC2=O)c([N+](=O)[O-])c1 [Mesotrione form 3, 2-[4-(methylsulfonyl)-2-nitrobenzoyl]-1,3-cyclohexanedione]",phytotoxicity on crops as compared to mesotrione form 1,corn varieties,decreased phytotoxicity; also recorded: low phytotoxicity
